This is an account of results in PubChem BioAssay (NCI).

Test systems include T-47D breast; SK-MEL-5 melanoma; SW-620 colon; UACC-257 melanoma; HCT-15 colon; UO-31 renal; NCI/ADR-RES ovarian; HCT-116 colon; SF-539 CNS; SNB-19 CNS.
Holding throughout (experiment): DTP human tumour cell line panel, 48 h

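Test compounds were applied to cells in 96-well plates for 48 hours at 5 doses. GI50 is the concentration that inhibits growth by half. TGI is the concentration that stops growth completely.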 Where a SMILES comes first, the peptide text is derived from it. [ ]: non-standard residue; d: D form. The star is where a group is joined. ξ: configuration not given here. ξF = NC(Cc1ccccc1)C(=O)O; Cbz = O=C(OCc1ccccc1)*; Aib = CC(C)(N)C(=O)O

The term TGI denotes the concentration giving total growth inhibition. In the case of `C=C1C(=O)O[C@@H]2/C=C(\C)CC/C=C(\C)CC[C@@]12O`, the TGI was found to be 3.33 µM in the assay with T-47D breast; 15.5 µM in the assay on SK-MEL-5 melanoma; 3.46 µM in the assay with SW-620 colon; 31.7 µM in the assay with UACC-257 melanoma; 9.27 µM in the assay on HCT-15 colon; 2.86 µM in the assay on UO-31 renal. Besides, the TGI stood at 41.6 µM in the assay on NCI/ADR-RES ovarian, 6.69 µM in the assay with HCT-116 colon, 3.39 µM in the assay with SF-539 CNS and 16.9 µM with SNB-19 CNS.

On to `COC(=O)C1=C(C)N2CCSC2(C)C(C(=O)OC)C1c1cccc(Cl)c1` (stereo not given), for which the TGI in the assay with SK-MEL-5 melanoma was 29 µM; with SW-620 colon, above 100 µM; in the assay with UACC-257 melanoma, 21.7 µM; in the assay on UO-31 renal, 38.3 µM; in the assay on HCT-116 colon, 34.9 µM; with SF-539 CNS it was 24.9 µM. Besides, the TGI in the assay on SNB-19 CNS worked out at 73.2 µM.

Consider `CN(Cc1cn(O)c2nc(=N)nc(N)c-2n1)c1ccc(C(=O)NC23CC4CC(CC(C4)C2)C3)cc1`, for which the TGI in the assay on T-47D breast, in the assay with SK-MEL-5 melanoma, in the assay on SW-620 colon, with UACC-257 melanoma, in the assay with HCT-15 colon and with UO-31 renal was above 100 µM throughout. The TGI in the assay with NCI/ADR-RES ovarian, with HCT-116 colon and in the assay on SNB-19 CNS was above 100 µM each time.

For `CC1(CO)COS(=O)OC1` (stereo not given), the TGI with T-47D breast, in the assay with SK-MEL-5 melanoma, with SW-620 colon, in the assay on UACC-257 melanoma, in the assay on HCT-15 colon and with UO-31 renal was above 100 µM throughout. For the same molecule, the TGI in the assay with NCI/ADR-RES ovarian, in the assay with HCT-116 colon and in the assay on SNB-19 CNS was above 100 µM each time.

Broadly, the GI50 is the concentration giving 50% growth inhibition. For `O=C1c2cccnc2C(=O)c2c1c(C(=O)OCCN1CCCCC1)c1ccccn21`, the GI50 in the assay on T-47D breast was 0.515 µM; in the assay with SK-MEL-5 melanoma it was 0.0251 µM; in the assay with SW-620 colon, 0.0187 µM; with UACC-257 melanoma it was 0.0878 µM; in the assay with HCT-15 colon, 0.0416 µM; in the assay on UO-31 renal, 0.0389 µM. In addition, the GI50 was 0.0331 µM in the assay on NCI/ADR-RES ovarian, 0.041 µM in the assay with HCT-116 colon, 0.0174 µM with SF-539 CNS and 0.013 µM in the assay on SNB-19 CNS. The TGI in the assay with T-47D breast was 7.4 µM; with SK-MEL-5 melanoma it was 0.113 µM; in the assay with SW-620 colon it was 0.362 µM; in the assay on UACC-257 melanoma, 0.395 µM; in the assay on HCT-15 colon, 0.984 µM; with UO-31 renal, 1.67 µM. Besides, the TGI with NCI/ADR-RES ovarian was 1.07 µM; in the assay with HCT-116 colon, 1.95 µM; in the assay on SF-539 CNS, 0.155 µM; with SNB-19 CNS, 0.498 µM.

Consider `Nc1ccc(O)c2c1C(=O)c1c(N)ccc(O)c1C2=O`, for which the TGI in the assay on SK-MEL-5 melanoma, with SW-620 colon, in the assay on UACC-257 melanoma, in the assay on HCT-15 colon, in the assay with UO-31 renal and with HCT-116 colon was above 100 µM throughout. Also, the TGI with SF-539 CNS and with SNB-19 CNS was above 100 µM in each case.

Turning to `Cc1cc2c(c(O)c1-c1c(C)cc(O)c3c1C(=O)C=CC3=O)C(=O)C=CC2=O`, the total growth inhibition concentration (TGI) is 3.67 µM in the assay with T-47D breast; 14.5 µM with SK-MEL-5 melanoma; 3.44 µM in the assay on UO-31 renal; 13.8 µM in the assay with NCI/ADR-RES ovarian; 31.7 µM with SF-539 CNS; above 56.8 µM with SNB-19 CNS.

Consider `CCN1c2cc(Br)cc3[nH]c(=O)n(c23)CCC1C` (stereo not given), for which the TGI in the assay on T-47D breast is 59.9 µM; with SK-MEL-5 melanoma it was 30 µM; in the assay on SW-620 colon, above 100 µM; in the assay on UACC-257 melanoma it was 40.6 µM; with HCT-15 colon, 35.5 µM; in the assay on UO-31 renal, 37.7 µM. In addition, the TGI in the assay with NCI/ADR-RES ovarian is 23 µM; with HCT-116 colon, 28.3 µM; in the assay on SF-539 CNS, above 100 µM; with SNB-19 CNS it was above 100 µM.

For `OCC(O)CNc1ncnc2ccccc12` (stereo not given), the TGI with T-47D breast, with SK-MEL-5 melanoma, with SW-620 colon, with UACC-257 melanoma, in the assay on HCT-15 colon and with UO-31 renal was above 100 µM throughout. For the same molecule, the TGI in the assay on NCI/ADR-RES ovarian, in the assay with HCT-116 colon and in the assay with SNB-19 CNS was above 100 µM in each case.

Take `CNC1Cc2c[nH]c3cccc(c23)C12C=C(C)C(=O)O2` (stereo not given): the TGI in the assay on T-47D breast, with SK-MEL-5 melanoma, with SW-620 colon, with UACC-257 melanoma, with HCT-15 colon and in the assay with UO-31 renal was above 100 µM in each case. For the same molecule, the TGI in the assay on NCI/ADR-RES ovarian, with HCT-116 colon, with SF-539 CNS and in the assay on SNB-19 CNS was above 100 µM each time.

Regarding `CCOC(=O)CNC(=O)C(Cc1ccccc1)NC(=O)C(C)(C)NC(=O)OCc1ccccc1` (stereo not given) (Cbz-[Aib]-[ξF]-Gly-OEt), the TGI in the assay on T-47D breast, in the assay with SK-MEL-5 melanoma, in the assay with SW-620 colon, with UACC-257 melanoma, in the assay with HCT-15 colon and in the assay with UO-31 renal was above 100 µM each time. Also, the TGI in the assay on NCI/ADR-RES ovarian, in the assay on HCT-116 colon and in the assay on SNB-19 CNS was above 100 µM throughout.

For `O=C(CSCC(=O)N/N=C/c1ccccc1)N/N=C\c1ccccc1`, the TGI in the assay with T-47D breast, in the assay on SK-MEL-5 melanoma, in the assay with SW-620 colon, in the assay with UACC-257 melanoma, in the assay with HCT-15 colon and with UO-31 renal was above 100 µM each time. For the same molecule, the TGI in the assay on NCI/ADR-RES ovarian, in the assay with HCT-116 colon, in the assay on SF-539 CNS and with SNB-19 CNS was above 100 µM each time.

Turning to `NC(=O)C1CCCN1C(=O)C(N)Cc1ccccc1` (stereo not drawn) (H-Phe-Pro-NH2; configuration not given here), the TGI in the assay on T-47D breast, in the assay on SK-MEL-5 melanoma, in the assay with SW-620 colon, in the assay with HCT-15 colon, in the assay with UO-31 renal and in the assay with NCI/ADR-RES ovarian was above 100 µM in each case. Also, the TGI in the assay with HCT-116 colon and with SNB-19 CNS was above 100 µM throughout.
